From ChEMBL document CHEMBL2057077, “Exploration of pipecolate sulfonamides as binders of the FK506-binding proteins 51 and 52” (J Med Chem, 2012) come the findings set out here.

What all share (conditions): read-out: IC50
Assay [1] deals with T1, Peptidyl-prolyl cis-trans isomerase FKBP4 (Homo sapiens, UniProt Q02790).
T1 sequence (Q02790 whole entry): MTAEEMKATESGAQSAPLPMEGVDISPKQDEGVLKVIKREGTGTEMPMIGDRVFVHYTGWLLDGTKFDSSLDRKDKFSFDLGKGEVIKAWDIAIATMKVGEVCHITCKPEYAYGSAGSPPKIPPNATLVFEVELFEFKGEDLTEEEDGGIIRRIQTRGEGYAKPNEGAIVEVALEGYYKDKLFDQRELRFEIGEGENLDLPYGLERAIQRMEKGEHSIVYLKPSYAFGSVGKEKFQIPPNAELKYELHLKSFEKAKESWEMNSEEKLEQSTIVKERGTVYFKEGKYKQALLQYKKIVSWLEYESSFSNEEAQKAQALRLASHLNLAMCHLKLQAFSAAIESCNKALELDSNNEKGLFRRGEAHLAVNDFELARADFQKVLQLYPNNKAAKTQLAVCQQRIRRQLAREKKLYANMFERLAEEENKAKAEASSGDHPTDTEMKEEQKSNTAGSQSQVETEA
In words: Binding affinity to FKBP52 FK1 domain by competitive fluorescence polarization assay. (In fluorescence polarisation assays a small probe gives low polarisation when free and higher when bound to something large.)

For assay [2], the target named is T2, Peptidyl-prolyl cis-trans isomerase FKBP5 (Homo sapiens, UniProt Q13451).
T2 sequence (Q13451 whole entry): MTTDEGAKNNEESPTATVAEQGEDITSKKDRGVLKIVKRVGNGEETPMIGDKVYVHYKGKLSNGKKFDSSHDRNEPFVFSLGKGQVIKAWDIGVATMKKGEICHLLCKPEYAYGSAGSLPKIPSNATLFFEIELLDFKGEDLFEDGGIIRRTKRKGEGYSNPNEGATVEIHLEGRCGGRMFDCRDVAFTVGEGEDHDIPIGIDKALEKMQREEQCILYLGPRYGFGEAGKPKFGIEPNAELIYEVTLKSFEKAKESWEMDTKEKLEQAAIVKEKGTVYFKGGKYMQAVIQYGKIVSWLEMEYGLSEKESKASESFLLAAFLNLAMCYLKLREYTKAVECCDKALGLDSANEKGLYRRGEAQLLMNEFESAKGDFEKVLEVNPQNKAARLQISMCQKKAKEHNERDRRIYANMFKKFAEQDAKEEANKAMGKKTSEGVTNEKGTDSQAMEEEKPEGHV
The assay can be described thus: Binding affinity to FKBP51 FK1 domain by competitive fluorescence polarization assay.

In assay [3] the target is Peptidyl-prolyl cis-trans isomerase FKBP1A (Homo sapiens, UniProt P62942). The assay can be described thus: Binding affinity to FKBP12 by competitive fluorescence polarization assay.
Peptidyl-prolyl cis-trans isomerase FKBP1A, sequence (P62942 whole entry): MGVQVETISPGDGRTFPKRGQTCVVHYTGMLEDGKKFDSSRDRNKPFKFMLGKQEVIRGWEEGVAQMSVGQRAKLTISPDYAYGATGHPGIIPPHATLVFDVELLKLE

`COc1ccc(CC[C@@H](OC(=O)[C@@H]2CCCCN2S(=O)(=O)c2cc(Cl)cc(Cl)c2)c2cccc(OCCN3CCOCC3)c2)cc1OC`: the 50% inhibitory concentration (IC50) in assay [1], in assay [2] and in assay [3] was greater than 50 µM in each case.
For `COc1ccc(CC[C@@H](OC(=O)[C@@H]2CCCCN2S(=O)(=O)c2cc(Cl)c(OC)c(Cl)c2)c2cccc(OCC(=O)O)c2)cc1OC`, the half-maximal inhibitory concentration (IC50) (commonly the concentration needed to halve the response being measured) in assay [3] amounted to 0.23 µM.
For `COc1ccc(CC[C@@H](OC(=O)[C@@H]2CCCCN2S(=O)(=O)c2cc(F)cc(F)c2)c2cccc(OCC(=O)O)c2)cc1OC`, the values for the IC50 in assay [2] and in assay [3] were 88.2 µM and 1 µM, respectively.
Take `COc1ccc(CC[C@@H](OC(=O)[C@@H]2CCCCN2S(=O)(=O)c2cc(Cl)c(NC(C)=O)c(Cl)c2)c2cccc(OCC(=O)O)c2)cc1OC`: the IC50 in assay [1] came out at 20.5 µM; in assay [2] it was 16.1 µM; in assay [3] it was 1.18 µM.
Taken in the same sequence, the figures for `COc1ccc(CC[C@@H](OC(=O)[C@@H]2CCCCN2S(=O)(=O)c2ccc3ncsc3c2)c2cccc(OCC(=O)O)c2)cc1OC` were 32.5 µM, 11.6 µM and 1.1 µM.
For `COc1ccc(CC[C@@H](OC(=O)[C@@H]2CCCCN2S(=O)(=O)c2ccc3ncsc3c2)c2cccc(OCCN3CCOCC3)c2)cc1OC`, the concentration for half-maximal inhibition (IC50) in assay [1], in assay [2] and in assay [3] was greater than 50 µM throughout.
With `COc1ccc(CC[C@@H](OC(=O)[C@@H]2CCCCN2S(=O)(=O)c2cc(Cl)c(O)c(Cl)c2)c2cccc(OCC(=O)O)c2)cc1OC`, the 50% inhibitory concentration (IC50) in assay [1] amounted to 20.3 µM; in assay [2] it was 6.2 µM; in assay [3] it was 0.67 µM.
Taken in the same sequence, the figures for `COc1ccc(CC[C@@H](OC(=O)[C@@H]2CCCCN2S(=O)(=O)c2ccc(Cl)c(Cl)c2)c2cccc(OCC(=O)O)c2)cc1OC` were greater than 100 µM, greater than 100 µM and 6.1 µM.
Taken in the same sequence, the figures for `COc1ccc(CC[C@@H](OC(=O)[C@@H]2CCCCN2S(=O)(=O)c2cccc([N+](=O)[O-])c2)c2cccc(OCC(=O)O)c2)cc1OC` were greater than 100 µM, 47.2 µM and 1.9 µM.
Taken in the same sequence, the figures for `COc1ccc(OCCOC(=O)[C@@H]2CCCCN2S(=O)(=O)c2ccc3ncsc3c2)cc1OC` were greater than 100 µM, 66.3 µM and 0.2 µM.
With `COc1ccc(CC[C@@H](OC(=O)[C@@H]2CCCCN2S(=O)(=O)c2cc3c(c([N+](=O)[O-])c2)OCC3)c2cccc(OCC(=O)O)c2)cc1OC`, the IC50 in assay [3] came out at 1.5 µM.
Same read-out and setting: with `COc1ccc(CC[C@@H](OC(=O)[C@@H]2CCCCN2S(=O)(=O)c2cccc(Cl)c2)c2cccc(OCC(=O)O)c2)cc1OC` the figure was 1.2 µM; with `COc1ccc(CC[C@@H](OC(=O)[C@@H]2CCCCN2S(=O)(=O)c2cc(Cl)c(O)c(Cl)c2)c2cccc(OCCN3CCOCC3)c2)cc1OC`, 0.115 µM; with `COc1ccc(CC[C@@H](OC(=O)[C@@H]2CCCCN2S(=O)(=O)c2cc(Cl)c(NC(C)=O)c(Cl)c2)c2cccc(OCCN3CCOCC3)c2)cc1OC`, 0.45 µM.
Regarding `COc1ccc(CC[C@@H](OC(=O)[C@@H]2CCCCN2S(=O)(=O)c2ccc3nc(C)sc3c2)c2cccc(OCC(=O)O)c2)cc1OC`, the IC50 in assay [3] is 1.2 µM.
Consider `COc1ccc(CC[C@@H](OC(=O)[C@@H]2CCCCN2S(=O)(=O)c2cc3ccccc3s2)c2cccc(OCC(=O)O)c2)cc1OC`, for which the figures for the IC50 in assay [1] and in assay [3] were greater than 100 µM and 4.6 µM, respectively.
For `COc1ccc(CC[C@@H](OC(=O)[C@@H]2CCCCN2S(=O)(=O)c2ccc(-c3ncccn3)cc2)c2cccc(OCC(=O)O)c2)cc1OC`, the IC50 was greater than 100 µM in assay [1] and 1.8 µM in assay [3].
As for `COc1ccc(CC[C@@H](OC(=O)[C@@H]2CCCCN2S(=O)(=O)c2ccc3[nH]c(=O)sc3c2)c2cccc(OCC(=O)O)c2)cc1OC`, the IC50 in assay [3] was determined as 0.021 µM.
As for `COc1ccc(CC[C@@H](OC(=O)[C@@H]2CCCCN2S(=O)(=O)c2cc(Cl)cc(Cl)c2)c2cccc(OCC(=O)O)c2)cc1OC`, the concentration for half-maximal inhibition (IC50) in assay [3] worked out at 0.8 µM.
